Data from patent US11028073B2, “Butylphthalide-telmisartan hybrids, preparation method and application thereof” (GUANGDONG LONGFU MEDICINE CO., LTD., priority 2017, dated 2021).

Columns and labels:
rats with tMCAO [1] = experiment: Infarct volume (TTC staining) in rats with transient middle cerebral artery occlusion (tMCAO); assay type: in vivo, rat
Description: (§1) Experimental method: 75 SD male rats weighing 300±20 g were raised under the condition of 25° C. and relative humidity of 60% to 75% for 1 week for experiment. Rats were randomized into 5 groups: sham group, vehicle group, drug administration group at 24 h after ischemia, drug administration group at 6 h after ischemia, drug administration group at 4 h after ischemia, respectively, with 15 animals in each group.
(§2) Establishment of transient middle cerebral artery occlusion (tMCAO) rat model: The rats were anesthetized by intraperitoneal injection of chloral hydrate, and lying on an operating table with limbs fixed with string. […] ECA was ligated and cut off, ICA was clamped at the distal end with an arterial clip, and then a small opening was cut at the intersection of ECA and ICA near the ECA. A nylon thread with paraffin coated on one end was inserted from the small cut opening into the internal carotid artery at the intersection of the internal and external carotid arteries and further into the anterior cerebral artery at the proximal end, to block the blood supply to the middle cerebral artery on this side. At 120 minutes after ischemia, the nylon thread was withdrawn at the incision of the external carotid artery to achieve the reperfusion of the middle cerebral artery. The room temperature during surgery was controlled at 25 to 27° C.
(§3) Administration method: administrating after surgery with a concentration of 1 mg/kg. Drug administration group at 4 h after ischemia was administrated at 4 h after ischemia, and once again after 24 h. Drug administration group at 6 h after ischemia was administrated at 6 h after ischemia, and once again after 24 h. Drug administration group at 24 h after ischemia was administrated once at 24 h after ischemia.
(§4) After the time window for administration of 13 was determined, administration at 4 hour post-ischemia was selected as the subsequent testing time point. 95 SD male rats were randomized into 7 groups: sham group, vehicle group, NBP group, Telm group, NBP+Telm group, 13 group and edaravone group, respectively. The surgical procedure was as described above, NBP (1 mg/kg), Telm (1 mg/kg), NBP (1 mg/kg)+Telm (1 mg/kg), 13 (1 mg/kg) and edaravone (3 mg/kg) were administrated at 4 hour post-ischemia, and once again at 24 h, respectively. The infarct volume and neurobehavioral score were determined at 48 h post-ischemia.
At 48 h post-ischemia, the rats were anesthetized with pentobarbital sodium, decapitated to get brain quickly, olfactory bulb, cerebellum and lower brain stem were removed, and coronal was cut into 6 slices. Then the brain slices were placed in the solution containing 4% TTC and 1 mol/L of K2HPO4, incubated at 37° C. for 30 min in the dark, during which the brain slices were flipped every 7 to 8 min. […] Images were taken after staining, and the infarct volume was calculated using an image analysis software. The percentage of infarct volume is calculated by the following formula: infarct area/total brain cross-sectional area×100%.
(§5) The experimental method was manipulated as described in 2. At 30 min before the administration of I3, rats were intraperitoneally injected with 20 mg/kg of AMPK inhibitor Compound C, and the volume of the ipsilateral hemisphere infarct and the neurobehavioral score were determined at 48 h post-ischemia. Western blot analysis was performed on ischemic brain tissue to determine the content of phosphorylated AMPK (p-AMPK) in the cerebral cortex at the infarct side.
(§6) In FIG. 2, tMCAO models are established in male rats of 260 to 280 g (thread embolism is pulled out from the rats after 2 hour ischemia, resulting in reperfusion), 13 compound (1 mg/kg) is intravenously injected at 4 h post-ischemia, and intravenously injected again at 24 h post-ischemia. […]

rats with tMCAO [2] = experiment: Neurobehavioral function score in tMCAO rats; assay type: in vivo, rat
Description: as §1, §2, §3, §4
The neurobehavioral function score of tMCAO rats were scored at 48 h after ischemia. Criteria for scoring is as follows: 0 point, no symptoms of nerve damage; 1 point, inability of fully extending forepaw at the healthy side; 2 points, circling to the healthy side; 3 points, tilting toward the healthy side; 4 points, inability of spontaneous walking and losing consciousness.
as §5, §6

[3] = test system: rats with permanent middle cerebral artery occlusion; experiment: Infarct volume in rats with permanent middle cerebral artery occlusion (pMCAO); assay type: in vivo, rat; conditions: for Infarction rate (%): 72 h after ischemia
Description: (§7) Experimental method: Surgical method was described as the operation method for the above tMCAO. The thread embolism remained in the brain of rats without pulling out, and rotarod performance was tested every day. Brains were taken out at 72 h after ischemia for the determination of infarct volume and neurobehavioral score. The process of the rotarod performance test was as follows: rats were placed on a rotating rod of which the speed was accelerated from 4 rpm up to the maximum speed of 40 rpm within 5 minutes. Rats were trained for 3 to 7 days before model establishment, the rotarod performance was tested at 1, 2 and 3 days after pMCAO, respectively, and the falling time of rats were recorded.
(§8) In FIG. 3, pMCAO model is established on male rats of 260 to 280 g (thread embolism is not pulled out, resulting in permanent ischemia), the administration method is the same as that in FIG. 2, and the infract volume, neurobehavioral scores and rotarod test were determined at 72 h after ischemia, as described above.

[4] = test system: rats with permanent middle cerebral artery occlusion; experiment: Neurobehavioral score in pMCAO rats; assay type: in vivo, rat; conditions: for Neurobehavioral score: 72 h after ischemia
Description: as §7, §8

[5] = test system: rats with permanent middle cerebral artery occlusion; experiment: Rotarod performance test in pMCAO rats; assay type: in vivo, rat; conditions: in s (unit assumed)
Description: as §7, §8

Nrf2 = experiment: Neh2-Luciferase reporter assay for Nrf2 activation in BV2 cells; assay type: cell-based; conditions: for activity of intracellular Nrf2 (luciferase): 24 h incubation, BV2 cells
Description: BV2 cells were transfected with Neh2-Luciferase reporter gene plasmid for 6 h, replaced a normal serum-containing medium and cultured for 24 h, then incubated with drug for 24 h, and treated with Reporter Lysis Buffer for 20 min. The Reporter Lysis Buffer was added to a 96-well plate, and the activity of luciferase was measured.
(§9) In FIGS. 1A and 1B, mouse primary microglia are pre-incubated with 1 μM or 5 μM of test compounds for 3 hours, then stimulated with LPS for 5 hours, and the protein content of pro-inflammatory factor TNF-α is determined by ELISA method. In FIG. 1C, the activations of the compounds on Nrf2 are tested by Luciferase Reporter Assay.

TNF-α = experiment: LPS-induced TNF-α release in mouse primary microglia (ELISA); assay type: cell-based; conditions: 1 μM or 5 μM drug pre-administrated 3 h, then 100 ng/mL LPS 5 h; supernatant ELISA
Description: The primary microglia were extracted from the brain of mouse and cultured, were pre-administrated with 1 μM or 5 μM drugs for 3 h, and then stimulated with 100 ng/mL lipopolysaccharide (LPS) for 5 h. The supernatant of cell culture was extracted, and the expression level of TNF-α in the supernatant was determined by ELISA method.
as §9

AMPK = experiment: Western blot of phosphorylated AMPK (p-AMPK) in cerebral cortex at the infarct side of tMCAO rats; assay type: in vivo, rat; conditions: Compound C 20 mg/kg i.p. 30 min before I3
Description: as §5

[6] = administrated at 4 h post-ischemia and again at 24 h, 1 mg/kg (edaravone 3 mg/kg), determined 48 h post-ischemia
[7] = tMCAO rats, comparison groups, administrated at 4 h post-ischemia and again at 24 h, 1 mg/kg (edaravone 3 mg/kg), scored 48 h

In the case of `CCCCC(OC(C)=O)c1ccccc1C(=O)OCCCCCCOC(=O)c1ccccc1-c1ccc(Cn2c(CCC)nc3c(C)cc(-c4nc5ccccc5n4C)cc32)cc1` (stereo not shown) [I5, 6-O-{2-[(1-acetoxyl)n-pentyl]benzoyl}hexanediol telmisartan ester], the melting point is reported as 82 to 83 °C.

For `CCCCC1OC(=O)c2ccccc21` (stereo not shown) [NBP, Butylphthalide], the “Infarction rate (%)” value (rats with tMCAO [1]; [6]) was 20.99% and the Neurobehavioral score (rats with tMCAO [2]; [7]) was 2.7.

With `CC1=NN(c2ccccc2)C(=O)C1` [Edaravone, reference compound] the “Infarction rate (%)” value (rats with tMCAO [1]; [6]) was 6.183%, the Neurobehavioral score (rats with tMCAO [2]; [7]) was 1.556 and the “Infarction rate (%)” value [3] was 16.7%. For the same compound, the Neurobehavioral score [4] was 1.7, the Falling time ([5]; Before modeling (baseline)) was 292.17 and the Falling time ([5]; Day 1 after pMCAO) was 56.33. The Falling time ([5]; Day 2 after pMCAO) was 64.00 and the Falling time ([5]; Day 3 after pMCAO) was 74.00.

`CCCCC(OC(C)=O)c1ccccc1C(=O)OCCCCOC(=O)c1ccccc1-c1ccc(Cn2c(CCC)nc3c(C)cc(-c4nc5ccccc5n4C)cc32)cc1` (stereo not shown) [I2, 4-O-{2-[(1-acetoxyl)n-pentyl]benzoyl}butanediol telmisartan ester] gave a melting point of 83 °C.

In the case of `CCCc1nc2c(C)cc(-c3nc4ccccc4n3C)cc2n1Cc1ccc(-c2ccccc2C(=O)O)cc1` [Telm, Telmisartan], the “Infarction rate (%)” value (rats with tMCAO [1]; [6]) is reported as 11.57% and the Neurobehavioral score (rats with tMCAO [2]; [7]) is reported as 1.

Work on `CCCCc1nc(C)c(C(=O)NCCCCCCCCNC(=O)c2ccccc2C(CCCC)OC(C)=O)n1Cc1ccc(-c2ccccc2-c2nnn[nH]2)cc1` (stereo not shown) [I17] yielded a melting point of 197 to 199 °C.

Compound `CCCCC(OC(C)=O)c1ccccc1C(=O)OCCCCCOC(=O)c1ccccc1-c1ccc(Cn2c(CCC)nc3c(C)cc(-c4nc5ccccc5n4C)cc32)cc1` (stereo not shown) [I4, 5-O-{2-[(1-acetoxyl)n-pentyl]benzoyl}pentanediol telmisartan ester] has a melting point of 78 to 79 °C.

Compound `CCCCC(OC(C)=O)c1ccccc1C(=O)OCCCCCCCCOC(=O)c1ccccc1-c1ccc(Cn2c(CCC)nc3c(C)cc(-c4nc5ccccc5n4C)cc32)cc1` (stereo not shown) [I6, 8-O-{2-[(1-acetoxyl)n-pentyl]benzoyl}octanediol telmisartan ester] has a melting point of 83 to 84 °C.

In the case of `CCCCC(OC(C)=O)c1ccccc1C(=O)NCCCCCCNC(=O)c1ccccc1-c1ccc(Cn2c(CCC)nc3c(C)cc(-c4nc5ccccc5n4C)cc32)cc1` (stereo not shown) [I7, 6-N-{2-[(1-acetoxyl)n-pentyl]benzoyl}hexanediamine telmisartan amide], the “activity of intracellular Nrf2 (luciferase)” value (shortened to “activity of intracellular Nrf2”) (Nrf2; 10 μM) is reported as “significantly activate the activity of intracellular Nrf2” and the melting point is reported as 96 to 98 °C.

With `Cc1c(-c2cnccn2)ssc1=S` [Oltipraz, reference compound] the “activation of Nrf2” value (Nrf2; concentration not given) was “significantly promote the activation of Nrf2”.

With `CCCCC(OC(C)=O)c1ccccc1C(=O)NCCCCNC(=O)c1ccccc1-c1ccc(Cn2c(CCC)nc3c(C)cc(-c4nc5ccccc5n4C)cc32)cc1` (stereo not shown) [I8, 4-N-{2-[(1-acetoxyl)n-pentyl]benzoyl}butanediamine telmisartan amide] the “activity of intracellular Nrf2” value (Nrf2; 10 μM) was “significantly activate the activity of intracellular Nrf2” and the melting point was 97 to 99 °C.

With `CCCCC(OC(C)=O)c1ccccc1C(=O)NCCCCCCCCNC(=O)c1ccccc1-c1ccc(Cn2c(CCC)nc3c(C)cc(-c4nc5ccccc5n4C)cc32)cc1` (stereo not shown) [I3, 8-N-{2-[(1-acetoxyl)n-pentyl]benzoyl}octanediamine telmisartan amide] the “LPS-induced TNF-α release in mouse primary microglia” value (TNF-α) was “significantly inhibit LPS-induced TNF-α release”, the “activity of intracellular Nrf2” value (Nrf2; 1 μM) was “significantly activate the activity of intracellular Nrf2” and the “activity of intracellular Nrf2” value (Nrf2; 10 μM) was “significantly activate the activity of intracellular Nrf2”. For the same compound, the “Infarction rate (%)” value (rats with tMCAO [1]; 1 mg/kg administrated at 6 h after ischemia and once again after 24 h, determined 48 h post-ischemia) was 13.07%, the “Infarction rate (%)” value (rats with tMCAO [1]; 1 mg/kg administrated once at 24 h after ischemia, determined 48 h post-ischemia) was 20.72% and the “infarct volume compared with NBP group, Telm group and NBP+Telm group” value (rats with tMCAO [1]; 4 h post-ischemia) was “more pronounced effect on reducing the infarct volume”. The “Infarction rate (%)” value (rats with tMCAO [1]; I3 1 mg/kg i.v. at 4 h after ischemia, with or without Compound C 20 mg/kg i.p. 30 min before, 48 h post-ischemia) was 6.655%, the “Infarction rate (%)” value (rats with tMCAO [1]; [6]) was 6.655% and the “infarct volume compared with vehicle group” value (rats with tMCAO [1]; administrating at each time point (4 h, 6 h, 24 h)) was “significantly reduced the infarct volume”. The “neurological function score compared with vehicle group” value (rats with tMCAO [2]; tMCAO (I/R) rats, administration at each time point) was “significantly reduced ischemia-induced neurological function score”, the Neurobehavioral score (rats with tMCAO [2]; tMCAO rats, 1 mg/kg, administrated after 4 h (time-window groups), scored 48 h after ischemia (0-4 points)) was 2.385 and the Neurobehavioral score (rats with tMCAO [2]; tMCAO rats, 1 mg/kg, administrated after 6 h, scored 48 h after ischemia (0-4 points)) was 1.867. The Neurobehavioral score (rats with tMCAO [2]; tMCAO rats, 1 mg/kg, administrated after 24 h, scored 48 h after ischemia (0-4 points)) was 1.182, the “neurological function compared with NBP, Telm and NBP+Telm” value (rats with tMCAO [2]; tMCAO rats, 4 h post-ischemia) was “more pronounced effect on improving the neurological function” and the Neurobehavioral score (rats with tMCAO [2]; tMCAO rats, I3 1 mg/kg i.v. at 4 h after ischemia, with or without Compound C 20 mg/kg i.p. 30 min before, 48 h post-ischemia) was 1.182. The Neurobehavioral score (rats with tMCAO [2]; [7]) was 1.182, the “Infarction rate (%)” value [3] was 12.48% and the infarct volume ([3]; in words) was “significantly reduced the infarct volume”. The Neurobehavioral score [4] was 1.6, the neurobehavioral impairment ([4]; in words) was “improved neurobehavioral impairment” and the Falling time ([5]; Before modeling (baseline)) was 279.10. The Falling time ([5]; Day 1 after pMCAO) was 68.63, the Falling time ([5]; Day 2 after pMCAO) was 94.00 and the Falling time ([5]; Day 3 after pMCAO) was 125.13. For the same compound, the “AMPK activity (p-AMPK content in cerebral cortex at the infarct side)” value (AMPK) was “increase of AMPK activity” and the melting point was 94 to 95 °C.

In the case of `c1cc(-c2cnn3cc(-c4ccc(OCCN5CCCCC5)cc4)cnc23)ccn1` [Compound C, reference compound], the “AMPK activity (p-AMPK content in cerebral cortex at the infarct side)” value (AMPK) is reported as “inhibit the increase of AMPK activity induced by I3”.
